Data on 16 compounds can be found in paper PMC7115377 (European Journal of Medicinal Chemistry, 2018).

Like-named read-outs stand apart in the source and are kept apart here.

In data set [1] the test system is HeLa cells. Conditions: microscopy.
The subject of data set [2] is MDCK cells.
Data set [3] concerns influenza B/Ned/537/05. The experiment in a line: Influenza B antiviral assay in MDCK cells. Format: cell-based. The note with it: Influenza B virus, read-out: mean EC50 anti-influenza B activity.
The test system of data set [4] is influenza B/Ned/537/05. The experiment in a line: Influenza B antiviral assay in MDCK cells. The data set is classed as cell-based. Conditions: Influenza B virus, read-out: EC50 Influenza B, microscopic method.
The test system of data set [5] is Respiratory syncytial virus (RSV; strain Long). The data set can be described thus: microbe, parasite or virus in culture. Format: cell-based. The note with it: human respiratory syncytial virus, HeLa, read-out: EC50 RSV.
Data set [6] deals with influenza B virus. The note with it: read-out: EC50 influenza B; previous series; ref [21]; cited from earlier work.

In the case of `NC1=NC2(CCNCC2)N(c2cccc(Cl)c2)C(N)=N1` [Compound 1, 1-(3-Chlorophenyl)-2,4-diamino-1,3,5,9-tetraazaspiro[5.5]undeca-2,4-diene], the “Cytotoxicity MCC” value in data set [1] is over 100 µM. The same measure, in the same setting: for `CC(C)(C)OC(=O)N1CCC2(CC1)N=C(N)N=C(N)N2c1cccc(Cl)c1` [Compound 2, Tert-butyl 1-(3-Chlorophenyl)-2,4-diamino-1,3,5,9-tetraazaspiro[5.5]undeca-2,4-diene-9-carboxylate] the value was over 100 µM. Same read-out and setting: for `NC1=NC2(CCN(C(=O)C3CCC3)CC2)N(c2cccc(Cl)c2)C(N)=N1` [Compound 3, 9-Cyclobutylcarbonyl-1-(3-chlorophenyl)-2,4-diamino-1,3,5,9-tetraazaspiro[5.5]undeca-2,4-diene] the value was over 100 µM. One may read the EC50 as the concentration that produces a half-maximal response. Turning to `Cc1ccc(C(=O)N2CCC3(CC2)N=C(N)N=C(N)N3c2cccc(Cl)c2)cc1` [Compound 4, 1-(3-Chlorophenyl)-2,4-diamino-9-(p-tolylcarbonyl)-1,3,5,9-tetraazaspiro[5.5]undeca-2,4-diene], the “CC50 fold higher than corresponding MCC” value in data set [2] stood at 22 fold. Also, the “Cytotoxicity MCC” value in data set [1] was at least 100 µM. For the same compound, the concentration for a half-maximal effect (EC50) in data set [3] is about 200 nM. As for `NC1=NC2(CCN(C(=O)c3ccc4ccccc4c3)CC2)N(c2cccc(Cl)c2)C(N)=N1` [Compound 5, 1-(3-Chlorophenyl)-2,4-diamino-9-[(naphthalen-2-yl)carbonyl]-1,3,5,9-tetraazaspiro-[5.5]undeca-2,4-diene], in data set [1], the “Cytotoxicity MCC” value is at least 100 µM. Turning to `NC1=NC2(CCN(C(=O)Nc3ccc(F)cc3)CC2)N(c2cccc(Cl)c2)C(N)=N1` [Compound 6, 1-(3-Chlorophenyl)-2,4-diamino-9-[N-(4-fluorophenyl)carbamoyl]-1,3,5,9-tetraazaspiro-[5.5]undeca −2,4-diene], the EC50 in data set [4] turned out to be 350 nM. In data set [2], the “CC50 fold higher than corresponding MCC” value amounted to 319 fold. In data set [1], the “Cytotoxicity MCC” value was at least 100 µM. On to `COc1cccc(N2C(N)=NC(N)=NC23CCNCC3)c1` [Compound 7, 2,4-Diamino-1-(3-methoxyphenyl)-1,3,5,9-tetraazaspiro[5.5]undeca-2,4-diene], for which the “Cytotoxicity MCC” value in data set [1] is over 100 µM. On the same count and under the same terms, for `COc1cccc(N2C(N)=NC(N)=NC23CCN(C(=O)OC(C)(C)C)CC3)c1` [Compound 8, Tert-butyl 2,4-diamino-1-(3-methoxyphenyl)-1,3,5,9-tetraazaspiro[5.5]undeca-2,4-diene-9-carboxylate] the value was over 100 µM. Same read-out and setting: for `CCCCC(=O)N1CCC2(CC1)N=C(N)N=C(N)N2c1cccc(OC)c1` [Compound 9, 2,4-Diamino-1-(3-methoxyphenyl)-9-(1-oxopent-1-yl)-1,3,5,9-tetraazaspiro[5.5]undeca-2,4-diene] the value was over 100 µM; for `COc1cccc(N2C(N)=NC(N)=NC23CCN(C(=O)c2ccc(C(F)(F)F)cc2C)CC3)c1` [Compound 10, 2,4-Diamino-1-(3-methoxyphenyl)-9-[(2-methyl-4-(trifluoromethyl)phenyl)carbonyl]-1,3,5,9-tetraazaspiro[5.5]undeca-2,4-diene], over 100 µM; for `CC(C)(C)OC(=O)N1CCC2(CC1)N=C(N)N=C(N)N2Cc1cccc(Cl)c1` [Compound 11, Tert-butyl 1-(3-Chlorobenzyl)-2,4-diamino-1,3,5,9-tetraazaspiro[5.5]undeca-2,4-diene-9-carboxylate], over 100 µM. Same read-out and setting: for `COCCN1C(N)=NC(N)=NC12CCN(C(=O)NC1CCC(C)CC1)CC2` (centres unmarked) [Compound 18, 2,4-Diamino-9-[(4-methylcyclohexyl)carbamoyl]-1-(2-methoxyethyl)-1,3,5,9-tetraazaspiro-[5.5]undeca-2,4-diene] the value was over 100 µM; for `CCS(=O)(=O)N1CCC2(CC1)N=C(N)N=C(N)N2CCOC` [Compound 20, 2,4-Diamino-9-(ethylsulfonyl)-1-(2-methoxyethyl)-1,3,5,9-tetraazaspiro[5.5]undeca-2,4-diene], over 100 µM.

Turning to `COCCN1C(N)=NC(N)=NC12CCN(S(=O)(=O)c1ccccc1)CC2` [Compound 21, 2,4-Diamino-9-(phenylsulfonyl)-1-(2-methoxyethyl)-1,3,5,9-tetraazaspiro[5.5]undeca-2,4-diene], the “Cytotoxicity MCC” value in data set [1] is over 100 µM.

Consider `NC(=O)c1ncn([C@@H]2O[C@H](CO)[C@@H](O)[C@H]2O)n1` [Ribavirin], for which the EC50 in data set [5] turned out to be 5800 nM. For the compound `CC(=O)N[C@H]1[C@H]([C@H](O)[C@H](O)CO)OC(C(=O)O)=C[C@@H]1NC(=N)N` [Zanamivir], in data set [6], the EC50 is 60 nM.
